Earlier results as cited in patent US20110151497A1, “METABOLOMIC PROFILING OF PROSTATE CANCER” (THE REGENTS OF THE UNIVERSITY OF MICHIGAN, priority 2009, published 2011).

Details: humans, isotope labeling

CCCCCCCCCCCCCCCCCC(=O)O [stearic acid]
fraction of dietary stearic acid oxidatively desaturated to oleic acid relative to fraction of palmitic acid converted to palmitoleic acid: 2.4 times
